One assay concerns Plasmodium falciparum. The experiment in a line: Antimalarial activity against Plasmodium falciparum. The assay is classed as functional, organism-based.
The subject of assay [1] is Human immunodeficiency virus 1. The experiment in a line: Antiviral activity against HIV1 OC100 infected in human CEM-SS cells. The assay is classed as functional, organism-based. The note with it: Human immunodeficiency virus 1, CEM-SS.
Assay [2] concerns Human immunodeficiency virus 1. The experiment in a line: Antiviral activity against HIV1 G9106 infected in human MT2 cells. The assay is classed as functional, organism-based. The note with it: Human immunodeficiency virus 1, G9106, MT2.
In assay [3] the test system is Human immunodeficiency virus 1. The experiment in a line: Antiviral activity against HIV1 RF infected in human CEM-SS cells. The assay is classed as functional, organism-based. The note with it: Human immunodeficiency virus 1, RF.
The test system of assay [4] is Human immunodeficiency virus 1. The experiment in a line: Antiviral activity against HIV1 A17 infected in human MT2 cells. The assay is classed as functional, organism-based. The note with it: Human immunodeficiency virus 1, A17, MT2.
In another assay the test system is CEM-SS. The experiment in a line: Cytotoxicity against human CEM-SS cells. The assay is classed as cell-based.

Converted amounts (≈) assume the structure as drawn.

Broadly, the IC50 is the concentration at which inhibition is half-maximal. The low end stands for inhibition by little substance, the high end for a need for much substance. Usually EC50 stands for the concentration giving half of the maximal effect. A higher EC50 goes with weaker potency.

With `COc1cc(O)c(-c2ccc(OC)c3c(O)cc(C)cc23)c2c1[C@@H](C)N[C@H](C)C2` [KORUPENSAMINE E], the IC50 in the assay on Plasmodium falciparum was found to be 2 µg/mL (≈ 5.08 µM).

`COc1cc(C)cc2c(-c3c(O)cc(O)c4c3C[C@@H](C)N[C@@H]4C)cc(-c3cc(-c4c(O)cc(O)c5c4C[C@@H](C)N[C@@H]5C)c4cc(C)cc(OC)c4c3O)c(O)c12` [MICHELLAMINE A]: the half-maximal effective concentration (EC50) in assay [1] was 23 µM; in assay [2], 19 µM; in assay [3] it was 6 µM; in assay [4], 18 µM.

Take `COc1cc(O)c(-c2cc(-c3cc(-c4c(O)cc(O)c5c4C[C@@H](C)N[C@@H]5C)c4cc(C)cc(OC)c4c3O)c(O)c3c(OC)cc(C)cc23)c2c1[C@@H](C)N[C@H](C)C2` [MICHELLAMINE D]: the concentration giving a half-maximal response (EC50) was 20 µM in assay [1], 11 µM in assay [2], 3 µM in assay [3] and 10 µM in assay [4]. The compound also showed an IC50 with CEM-SS of 17 µM.

As to `COc1cc(C)cc2c(-c3c(O)cc(O)c4c3C[C@H](C)N(C)[C@@H]4C)cc(-c3cc(-c4c(O)cc(O)c5c4C[C@@H](C)N[C@@H]5C)c4cc(C)cc(OC)c4c3O)c(O)c12` [MICHELLAMINE E], the EC50 in assay [1] stood at 11 µM; in assay [2], 15 µM; in assay [3] it was 4 µM; in assay [4], 13 µM. Further, 23 µM corresponded to half-maximal inhibition in the assay on CEM-SS (IC50).

With `COc1cc(O)c(-c2cc(-c3cc(-c4c(O)cc(O)c5c4C[C@@H](C)N[C@@H]5C)c4cc(C)cc(OC)c4c3O)c(O)c3c(OC)cc(C)cc23)c2c1C(C)=N[C@H](C)C2` [MICHELLAMINE F], the EC50 in assay [1] came out at 9 µM; in assay [2], 8 µM; in assay [3], 2 µM; in assay [4], 11 µM. In the assay on CEM-SS, this compound displayed an IC50 of 188 µM.

The values above are taken from ChEMBL document CHEMBL1146434, “Michellamines D-F, new HIV-inhibitory dimeric naphthylisoquinoline alkaloids, and korupensamine E, a new antimalarial monomer, from Ancistrocladus korupensis” (J Nat Prod, 1997).
